# Source: ChEMBL document CHEMBL1201862, “PubChem BioAssay data set” (2004)
# Activity calls are given as the source filed them.
# Columns and labels:
# [1] = biological target: T1, High affinity choline transporter 1 (Homo sapiens, UniProt Q9GZV3); assay: CHT inhibitors, dose response, cell-based, 5-point CRC, membrane potential dye (AID 504840); assay type: functional
# T1 sequence (Q9GZV3 whole entry): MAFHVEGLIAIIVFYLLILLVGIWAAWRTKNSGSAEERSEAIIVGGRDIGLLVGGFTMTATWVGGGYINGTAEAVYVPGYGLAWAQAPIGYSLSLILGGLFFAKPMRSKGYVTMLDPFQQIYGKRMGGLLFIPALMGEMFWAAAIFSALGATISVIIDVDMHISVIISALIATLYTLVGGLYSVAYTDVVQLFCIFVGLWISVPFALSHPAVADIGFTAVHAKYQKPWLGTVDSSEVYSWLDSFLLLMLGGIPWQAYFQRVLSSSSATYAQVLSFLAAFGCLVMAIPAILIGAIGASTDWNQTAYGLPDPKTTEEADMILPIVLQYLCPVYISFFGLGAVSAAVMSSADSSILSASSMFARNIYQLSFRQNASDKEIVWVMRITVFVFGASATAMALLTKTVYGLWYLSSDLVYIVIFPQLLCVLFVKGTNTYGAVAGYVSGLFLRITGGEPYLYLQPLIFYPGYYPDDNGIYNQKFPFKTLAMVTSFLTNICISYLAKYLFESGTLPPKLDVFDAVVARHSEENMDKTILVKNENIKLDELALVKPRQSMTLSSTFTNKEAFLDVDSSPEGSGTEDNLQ
# [2] = cells; assay type: functional
# [3] = THP-1 cell cytotoxicity, dose response, cytotoxicity control for non-replicating M. tuberculosis project (AID 489025); assay type: functional
# [4] = biological target: Heat shock protein HSP 90-alpha (Homo sapiens, UniProt P07900); assay type: functional, organism-based
# [5] = Vero E6 cell cytotoxicity, dose response, cytotoxicity control for non-replicating M. tuberculosis project, secondary assay (AID 492998); assay type: functional, VeroE6; settings: Vero C1008
# [6] = biological target: Cytochrome P450 3A4 (Homo sapiens, UniProt P08684);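 note: CYP3A4 tested as one member of a cytochrome P450 panel screen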
# Sequence of Cytochrome P450 3A4 (P08684 whole entry): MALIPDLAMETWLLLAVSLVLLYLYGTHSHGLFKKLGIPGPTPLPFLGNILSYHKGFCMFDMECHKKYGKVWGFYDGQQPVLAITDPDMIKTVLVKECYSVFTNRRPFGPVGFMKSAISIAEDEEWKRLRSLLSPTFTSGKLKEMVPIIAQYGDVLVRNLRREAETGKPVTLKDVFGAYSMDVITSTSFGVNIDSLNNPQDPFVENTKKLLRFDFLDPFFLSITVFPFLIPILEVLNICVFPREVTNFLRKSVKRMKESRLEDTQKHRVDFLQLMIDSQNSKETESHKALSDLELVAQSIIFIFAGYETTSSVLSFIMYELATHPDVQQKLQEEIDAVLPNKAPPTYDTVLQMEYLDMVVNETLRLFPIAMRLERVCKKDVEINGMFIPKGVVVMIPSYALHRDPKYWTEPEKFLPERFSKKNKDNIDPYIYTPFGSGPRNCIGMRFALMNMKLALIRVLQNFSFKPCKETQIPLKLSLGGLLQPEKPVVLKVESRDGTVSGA
# [7] = biological target: T2, Coagulation factor XII (Homo sapiens, UniProt P00748); assay type: functional;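 note: activated factor XIIa alpha cleaving a fluorogenic AMC peptide substrate; inhibitor potency from loss of enzyme activity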
# T2 sequence (P00748 whole entry): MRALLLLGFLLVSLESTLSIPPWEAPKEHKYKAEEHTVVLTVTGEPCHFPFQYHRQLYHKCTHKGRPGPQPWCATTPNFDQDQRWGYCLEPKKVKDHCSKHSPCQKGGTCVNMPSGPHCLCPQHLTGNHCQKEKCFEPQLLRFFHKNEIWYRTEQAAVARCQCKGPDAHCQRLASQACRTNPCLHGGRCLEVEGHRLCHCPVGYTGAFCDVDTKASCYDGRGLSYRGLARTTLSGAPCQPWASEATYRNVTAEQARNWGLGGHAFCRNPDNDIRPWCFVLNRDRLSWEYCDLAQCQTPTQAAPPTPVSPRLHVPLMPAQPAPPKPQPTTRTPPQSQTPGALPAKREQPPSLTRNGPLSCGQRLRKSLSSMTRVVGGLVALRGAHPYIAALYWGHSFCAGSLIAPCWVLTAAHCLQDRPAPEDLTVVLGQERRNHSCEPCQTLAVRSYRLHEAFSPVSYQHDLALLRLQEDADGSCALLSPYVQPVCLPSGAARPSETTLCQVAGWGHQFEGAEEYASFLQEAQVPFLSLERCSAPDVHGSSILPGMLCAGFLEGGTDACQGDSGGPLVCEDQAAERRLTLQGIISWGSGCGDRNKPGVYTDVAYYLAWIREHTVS
# [8] = biological target: Cytochrome P450 2C19 (Homo sapiens, UniProt P33261); assay: Cytochrome panel assay with activity outcomes. Panel member name: p450-cyp2c19 Compounds with AC50 equal or less than 10 uM are considered active; assay type: functional; settings: read-out: AC50
# Sequence of Cytochrome P450 2C19 (P33261 whole entry): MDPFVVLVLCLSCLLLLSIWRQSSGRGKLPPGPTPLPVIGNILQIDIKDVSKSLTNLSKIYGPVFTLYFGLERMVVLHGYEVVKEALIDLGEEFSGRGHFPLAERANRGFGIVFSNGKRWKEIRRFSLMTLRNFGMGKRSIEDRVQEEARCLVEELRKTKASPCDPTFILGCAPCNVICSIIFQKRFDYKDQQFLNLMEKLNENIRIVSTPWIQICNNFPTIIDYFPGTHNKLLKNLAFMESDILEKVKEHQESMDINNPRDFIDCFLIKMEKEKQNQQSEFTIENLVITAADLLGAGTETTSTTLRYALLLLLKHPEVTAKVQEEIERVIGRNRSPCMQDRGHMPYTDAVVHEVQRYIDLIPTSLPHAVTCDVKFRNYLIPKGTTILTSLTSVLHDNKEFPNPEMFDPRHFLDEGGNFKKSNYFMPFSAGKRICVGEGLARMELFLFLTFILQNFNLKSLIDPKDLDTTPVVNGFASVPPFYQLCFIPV
# [9] = biological target: Cytochrome P450 2C9 (Homo sapiens, UniProt P11712)
# Sequence of Cytochrome P450 2C9 (P11712 whole entry): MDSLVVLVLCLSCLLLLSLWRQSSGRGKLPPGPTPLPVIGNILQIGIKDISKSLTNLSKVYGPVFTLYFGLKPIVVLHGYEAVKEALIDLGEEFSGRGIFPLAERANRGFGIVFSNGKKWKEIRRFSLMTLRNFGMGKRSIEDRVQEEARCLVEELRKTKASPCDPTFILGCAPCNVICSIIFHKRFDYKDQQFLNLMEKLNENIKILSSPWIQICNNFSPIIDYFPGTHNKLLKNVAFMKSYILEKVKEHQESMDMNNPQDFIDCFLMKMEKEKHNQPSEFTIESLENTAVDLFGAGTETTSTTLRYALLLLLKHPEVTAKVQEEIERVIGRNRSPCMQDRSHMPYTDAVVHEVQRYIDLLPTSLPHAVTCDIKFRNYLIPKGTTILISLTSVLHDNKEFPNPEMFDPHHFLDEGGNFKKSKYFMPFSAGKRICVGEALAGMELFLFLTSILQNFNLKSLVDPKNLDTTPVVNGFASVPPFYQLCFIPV
# [10] = biological target: Genome polyprotein (dengue virus type 2, UniProt P29990); assay: Dengue-2 NS5 methyltransferase inhibitors, primary screen, biochemical, confirmation dose response (AID 588689); assay type: functional
# Sequence of Genome polyprotein (P29990 2492-3391 limits assumed): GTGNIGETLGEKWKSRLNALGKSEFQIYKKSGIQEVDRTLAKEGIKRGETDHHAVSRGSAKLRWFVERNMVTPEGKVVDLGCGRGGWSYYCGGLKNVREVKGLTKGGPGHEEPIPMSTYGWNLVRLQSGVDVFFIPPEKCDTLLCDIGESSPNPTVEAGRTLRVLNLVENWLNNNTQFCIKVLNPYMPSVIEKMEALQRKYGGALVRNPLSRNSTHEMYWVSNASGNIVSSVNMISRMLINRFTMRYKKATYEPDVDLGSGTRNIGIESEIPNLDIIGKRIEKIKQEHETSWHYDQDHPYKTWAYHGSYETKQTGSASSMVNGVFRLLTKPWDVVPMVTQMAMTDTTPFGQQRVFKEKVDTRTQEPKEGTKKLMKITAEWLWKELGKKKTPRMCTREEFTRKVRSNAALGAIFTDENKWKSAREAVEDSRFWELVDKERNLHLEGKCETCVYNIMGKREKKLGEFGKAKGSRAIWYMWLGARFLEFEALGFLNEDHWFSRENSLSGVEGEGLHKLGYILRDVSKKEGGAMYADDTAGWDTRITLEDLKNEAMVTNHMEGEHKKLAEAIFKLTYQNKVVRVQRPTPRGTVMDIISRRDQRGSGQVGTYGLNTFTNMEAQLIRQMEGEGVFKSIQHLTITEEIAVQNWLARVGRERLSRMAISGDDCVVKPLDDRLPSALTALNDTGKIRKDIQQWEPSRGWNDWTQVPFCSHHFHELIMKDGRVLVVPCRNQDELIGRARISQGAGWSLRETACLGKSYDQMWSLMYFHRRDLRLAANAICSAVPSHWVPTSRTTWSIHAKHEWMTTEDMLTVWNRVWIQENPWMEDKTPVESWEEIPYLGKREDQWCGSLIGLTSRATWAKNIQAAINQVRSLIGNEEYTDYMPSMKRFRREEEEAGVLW
# [11] = biological target: Glucose-6-phosphate 1-dehydrogenase (Homo sapiens, UniProt P11413); assay: human G6PD enzyme inhibitors, dose response, selectivity assay for P. falciparum G6PD inhibitor project, biochemical, fluorescence (AID 504792); assay type: functional
# Sequence of Glucose-6-phosphate 1-dehydrogenase (P11413 whole entry): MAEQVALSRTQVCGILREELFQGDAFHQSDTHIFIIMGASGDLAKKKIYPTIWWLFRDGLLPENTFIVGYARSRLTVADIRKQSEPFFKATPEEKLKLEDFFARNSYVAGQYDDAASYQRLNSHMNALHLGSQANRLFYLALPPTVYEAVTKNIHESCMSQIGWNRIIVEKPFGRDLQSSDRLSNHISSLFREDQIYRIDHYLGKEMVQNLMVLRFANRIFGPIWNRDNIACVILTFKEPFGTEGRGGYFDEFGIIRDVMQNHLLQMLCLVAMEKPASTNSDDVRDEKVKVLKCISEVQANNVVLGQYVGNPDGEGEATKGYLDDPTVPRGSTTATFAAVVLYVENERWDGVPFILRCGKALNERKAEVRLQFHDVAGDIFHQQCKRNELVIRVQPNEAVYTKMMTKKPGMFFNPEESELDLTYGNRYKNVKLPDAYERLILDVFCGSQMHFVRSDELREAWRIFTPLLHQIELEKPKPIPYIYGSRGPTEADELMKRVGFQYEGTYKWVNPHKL
# [12] = biological target: Luciferin 4-monooxygenase (Photinus pyralis, UniProt P08659); assay: firefly luciferase enzyme inhibitors, dose response, biochemical, luminescence (AID 1891)
# Sequence of Luciferin 4-monooxygenase (P08659 whole entry): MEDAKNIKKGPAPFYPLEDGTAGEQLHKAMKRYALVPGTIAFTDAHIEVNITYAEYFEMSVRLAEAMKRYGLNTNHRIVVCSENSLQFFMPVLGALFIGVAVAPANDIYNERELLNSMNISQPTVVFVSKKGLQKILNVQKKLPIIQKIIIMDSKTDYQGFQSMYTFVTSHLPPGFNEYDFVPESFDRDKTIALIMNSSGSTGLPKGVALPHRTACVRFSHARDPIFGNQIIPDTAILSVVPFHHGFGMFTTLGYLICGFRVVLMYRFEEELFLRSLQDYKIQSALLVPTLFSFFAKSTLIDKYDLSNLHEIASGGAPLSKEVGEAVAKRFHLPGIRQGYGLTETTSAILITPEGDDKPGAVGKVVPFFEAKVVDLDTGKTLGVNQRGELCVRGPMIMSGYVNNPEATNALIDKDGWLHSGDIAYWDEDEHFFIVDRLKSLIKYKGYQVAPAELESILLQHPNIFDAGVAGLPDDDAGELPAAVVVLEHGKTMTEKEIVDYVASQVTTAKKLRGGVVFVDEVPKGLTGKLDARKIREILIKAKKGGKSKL
# [13] = Luminescence Cell-Based Dose Confirmation HTS to Identify Inhibitors of Platelet Dense Granule Release. [Related pubchem assays: 1663 (Primary HTS), 1678 (Summary of Project)]; assay type: functional
# [14] = cytotoxicity in HEK-293T cells, dose response, cytotoxicity control for TCR NF-kB inhibitor project, luminescence, T-cell screen hits (AID 489026); assay type: functional, cell-based;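 note: cells exposed to compound about 14 hours before the viability readout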
# [15] = test system: BJ; assay: cytotoxicity toward BJ-TERT-LT-ST fibroblasts, dose response, cell-based, RAS-independent, luminescence (AID 1935); assay type: functional; settings: Homo sapiens;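 note: BJ fibroblasts immortalized with TERT plus LT and ST oncogenes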
# [16] = cytotoxicity toward DRD oncogenic fibroblasts, dose response, cell-based, non-viral oncogenic, luminescence (AID 1934); assay type: functional; settings: Homo sapiens
# [17] = biological target: T3, Heat shock factor protein 1 (Mus musculus, UniProt P38532); assay: inhibition of MG132-induced HSE-luciferase signal, confirmation, cell-based, NIH3T3, luminescence, dose retest (AID 2382); assay type: functional;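 note: NIH3T3 fibroblasts with HSF1-driven luciferase reporter stressed by proteasome inhibitor MG132; luminescence from HSF1-driven luciferase expression after 8 hours of MG132 stress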
# T3 sequence (P38532 whole entry): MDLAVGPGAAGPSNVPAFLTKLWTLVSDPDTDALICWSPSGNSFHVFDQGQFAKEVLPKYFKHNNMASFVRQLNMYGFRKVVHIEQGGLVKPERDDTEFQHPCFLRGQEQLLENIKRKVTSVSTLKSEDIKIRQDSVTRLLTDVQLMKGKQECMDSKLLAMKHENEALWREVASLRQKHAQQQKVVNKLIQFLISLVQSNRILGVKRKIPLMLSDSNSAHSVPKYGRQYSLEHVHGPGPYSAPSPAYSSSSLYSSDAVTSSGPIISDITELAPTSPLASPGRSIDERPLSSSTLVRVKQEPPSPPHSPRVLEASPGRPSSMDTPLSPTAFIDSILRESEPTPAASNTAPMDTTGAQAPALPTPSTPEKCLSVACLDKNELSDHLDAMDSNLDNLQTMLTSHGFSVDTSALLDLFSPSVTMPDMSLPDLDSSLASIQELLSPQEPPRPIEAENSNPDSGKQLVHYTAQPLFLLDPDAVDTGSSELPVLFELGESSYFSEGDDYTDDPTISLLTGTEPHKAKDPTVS
# [18] = test system: BJ; assay: cells; assay type: functional, cell-based; settings: Homo sapiens
# [19] = test system: BJ; assay: cytotoxicity toward BJ-TERT fibroblasts, dose response, cell-based, RAS-independent, luminescence (AID 1933); assay type: functional; settings: Homo sapiens
# [20] = HepG2 cell cytotoxicity, dose response, cytotoxicity control for Shn3 inhibitor project, CellTiter-Glo, cherry-picked (AID 624134); assay type: functional, cell-based
# [21] = control 3'UTR Renilla luciferase suppression, dose response, counter-screen for Shn3 inhibitor project, cell-based, Clone20-Shn3RL, cherry-picked (AID 624133); assay type: functional
# [22] = biological target: T4, Protein skinhead-1 (Caenorhabditis elegans, UniProt P34707); assay type: functional
# T4 sequence (P34707 whole entry): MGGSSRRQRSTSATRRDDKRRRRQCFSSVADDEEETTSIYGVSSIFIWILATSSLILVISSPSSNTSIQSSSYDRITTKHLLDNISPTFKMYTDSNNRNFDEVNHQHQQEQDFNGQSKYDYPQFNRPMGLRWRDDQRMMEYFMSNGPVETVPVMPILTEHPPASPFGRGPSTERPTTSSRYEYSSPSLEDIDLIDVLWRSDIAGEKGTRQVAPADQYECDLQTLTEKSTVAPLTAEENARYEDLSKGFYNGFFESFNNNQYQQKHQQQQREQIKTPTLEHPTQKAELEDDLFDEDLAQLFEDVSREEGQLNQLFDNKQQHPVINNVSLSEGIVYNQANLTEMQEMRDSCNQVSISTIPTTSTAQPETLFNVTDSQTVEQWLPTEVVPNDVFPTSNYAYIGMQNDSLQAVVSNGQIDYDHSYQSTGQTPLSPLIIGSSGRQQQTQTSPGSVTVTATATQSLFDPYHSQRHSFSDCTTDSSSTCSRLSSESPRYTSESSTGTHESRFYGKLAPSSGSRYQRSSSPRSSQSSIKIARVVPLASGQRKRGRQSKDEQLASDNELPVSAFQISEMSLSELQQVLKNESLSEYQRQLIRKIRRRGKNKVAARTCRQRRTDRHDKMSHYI
# [23] = Shn3 3'UTR reporter inhibitors, dose response, cell-based, Clone20 osteoblasts, firefly luciferase, cherry-picked (AID 624132); assay type: functional;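 note: firefly luciferase luminescence from reporter carrying the Shn3 3'UTR in osteoblasts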
# [24] = biological target: T5, Cytochrome P450 1A2 (Homo sapiens, UniProt P05177);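 note: PubChem cytochrome P450 panel assay, CYP1A2 panel member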
# T5 sequence (P05177 whole entry): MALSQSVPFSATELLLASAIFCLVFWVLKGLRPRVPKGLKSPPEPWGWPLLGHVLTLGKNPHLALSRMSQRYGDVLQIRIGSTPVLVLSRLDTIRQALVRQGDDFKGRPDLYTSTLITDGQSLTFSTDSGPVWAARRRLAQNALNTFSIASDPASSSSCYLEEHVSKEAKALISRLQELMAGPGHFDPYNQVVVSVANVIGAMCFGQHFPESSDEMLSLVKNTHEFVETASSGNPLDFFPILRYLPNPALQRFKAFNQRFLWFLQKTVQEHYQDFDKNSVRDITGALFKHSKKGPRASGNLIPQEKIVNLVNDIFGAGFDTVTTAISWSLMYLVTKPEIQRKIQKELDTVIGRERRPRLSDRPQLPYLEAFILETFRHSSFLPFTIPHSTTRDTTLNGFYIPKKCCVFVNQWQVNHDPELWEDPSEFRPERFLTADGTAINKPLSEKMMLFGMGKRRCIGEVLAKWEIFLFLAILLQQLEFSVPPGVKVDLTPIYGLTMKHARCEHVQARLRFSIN
# [25] = biological target: Glyceraldehyde-3-phosphate dehydrogenase (Homo sapiens, UniProt P04406)
# Sequence of Glyceraldehyde-3-phosphate dehydrogenase (P04406 whole entry): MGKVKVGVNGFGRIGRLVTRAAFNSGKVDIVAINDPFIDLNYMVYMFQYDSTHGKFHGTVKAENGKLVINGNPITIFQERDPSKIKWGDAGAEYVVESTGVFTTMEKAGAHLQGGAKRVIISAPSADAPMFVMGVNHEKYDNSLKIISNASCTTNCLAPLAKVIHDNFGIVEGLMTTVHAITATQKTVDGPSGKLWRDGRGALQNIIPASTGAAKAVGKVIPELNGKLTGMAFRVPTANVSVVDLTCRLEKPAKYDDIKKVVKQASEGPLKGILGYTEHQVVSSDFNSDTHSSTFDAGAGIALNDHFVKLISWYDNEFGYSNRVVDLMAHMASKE
# [26] = biological target: T6, Alkaline phosphatase, tissue-nonspecific isozyme (Homo sapiens, UniProt P05186); assay: human TNAP enzyme inhibitors, SAR follow-up, biochemical, luminescent, dose response (AID 1056)
# T6 sequence (P05186 whole entry): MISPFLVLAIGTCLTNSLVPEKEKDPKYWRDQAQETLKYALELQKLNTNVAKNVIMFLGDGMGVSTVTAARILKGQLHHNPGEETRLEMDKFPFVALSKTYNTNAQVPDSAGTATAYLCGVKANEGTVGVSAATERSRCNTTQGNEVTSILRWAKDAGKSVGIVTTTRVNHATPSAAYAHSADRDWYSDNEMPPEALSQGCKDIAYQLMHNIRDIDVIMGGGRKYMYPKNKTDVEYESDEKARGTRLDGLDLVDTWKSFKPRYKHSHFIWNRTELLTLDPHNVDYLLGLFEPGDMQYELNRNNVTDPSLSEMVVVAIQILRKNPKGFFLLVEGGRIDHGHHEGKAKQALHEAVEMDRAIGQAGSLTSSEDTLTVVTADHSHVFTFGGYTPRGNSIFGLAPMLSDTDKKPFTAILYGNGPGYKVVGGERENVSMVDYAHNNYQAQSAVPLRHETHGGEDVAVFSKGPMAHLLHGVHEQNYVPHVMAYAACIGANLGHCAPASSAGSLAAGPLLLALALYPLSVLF
smiles,measurement,setting,value
C=Cn1cc[n+](CC(=O)c2ccc(Br)cc2)c1,IC50,[1],15.1 µM (active)
O=C(Nc1nnc(-c2ccc(F)cc2)o1)c1cc(Cl)sc1Cl,IC50,[2],0.24 µM (active)
same,CC50,[3],24.2 µM (active)
same,IC50,[1],14.5 µM (active)
same,AC50,[4],1.99 µM (active)
same,CC50,[5],15.3 µM (active)
O=C(c1cccc(F)c1)N1CCC2(CC1)CN(c1ccc(-c3ccccc3)cc1)C2,AC50,[6],inconclusive
CCOC(=O)C1(Cc2cccc(F)c2)CCN(C(=O)Cn2cnnn2)CC1,IC50,[7],> 50 µM (inactive)
CC(=O)O[C@H]1CC[C@@]2(C)C(=CC[C@@H]3[C@H]2CC[C@]2(C)C(=O)CC[C@H]32)C1,AC50,[8],5.01 µM (inconclusive)
same,AC50,[9],15.8 µM (inconclusive)
same,AC50,[6],inconclusive
O=C(O)CCN1C(=O)/C(=C\c2cccc(OCC(=O)Nc3ccc(Cl)cc3)c2)SC1=S,IC50,[10],34.9 µM (active)
O=C(Nc1nnc(S(=O)(=O)N2CCCC2)s1)c1cccc([N+](=O)[O-])c1,IC50,[11],56 µM (inactive)
CCOC(=O)c1c(C)nc2sc3c(=O)n(-c4ccc(OC)cc4)nnc3c2c1-c1ccc(OC)cc1,EC50,[12],> 112 µM (not active)
same,AC50,[8],2.51 µM (inconclusive)
same,EC50,[13],> 112 µM (not active)
same,AC50,[6],inconclusive
CC(C)Cn1c(-c2ccccc2)nc2ccccc2c1=O,IC50,[7],> 50 µM (inactive)
Cc1ccc(-c2cc3c(N=O)c4ccccc4c-3[nH]n2)cc1,IC50,[14],> 80 µM (inactive)
same,EC50,[15],13.1 µM (active)
same,EC50,[16],6.32 µM (active)
same,EC50,[17],4.95 µM (active)
same,EC50,[12],0.207 µM (active)
same,EC50,[18],6.73 µM (active)
same,EC50,[19],6.45 µM (active)
same,EC50,[13],3.05 µM (active)
COc1ccccc1CN1C(=O)[C@@H]2C(CCC(N)=O)NC3(C(=O)Nc4c3ccc(Cl)c4C)[C@@H]2C1=O (stereo not given in full),IC50,[1],16.6 µM (active)
Cc1cc(NC(=O)c2ccccc2F)n(-c2nc3ccccc3[nH]2)n1,IC50,[2],> 50 µM (active)
same,CC50,[3],> 40 µM (active)
same,CC50,[5],17.6 µM (active)
COc1ccc(CCn2c(NN=C3CCCCC3)nc3c2c(=O)[nH]c(=O)n3C)cc1,IC50,[11],11.6 µM (active)
CCCCc1ccc(NC(=O)CSc2nc(=O)n(CCCN3CCOCC3)c3c2CCC3)cc1,IC50,[1],13.8 µM (active)
Cc1c(C(=O)Nc2cccc(C(F)(F)F)c2)oc2ccc(S(=O)(=O)N3CCOCC3)cc12,AC50,[20],> 70 µM (inactive)
same,AC50,[21],> 70 µM (inactive)
same,IC50,[22],> 100 µM (inactive)
same,AC50,[23],3.8 µM (active)
same,AC50,[6],inconclusive
same,AC50,[24],10 µM (inconclusive)
CCOc1ccc(CC(=O)C2C(=O)CCCC2=O)cc1OCC,AC50,[8],39.8 µM (inconclusive)
same,AC50,[6],inconclusive
O=C1c2ccccc2C(=O)N1c1nc(-c2cccnc2)n[nH]1,IC50,[25],> 100 µM (not active)
same,IC50,[26],> 100 µM (inactive)
Cc1c(CCO)c(O)oc2nnc(-c3ccccc3)c1-2,IC50,[25],> 100 µM (not active)
same,IC50,[26],> 100 µM (inactive)
O=C(N/N=C/c1cccc([N+](=O)[O-])c1)C(=O)N1CCCCCC1,IC50,[11],> 80 µM (inactive)
